The test system of this assay is HIV-1. Put plainly: MT-4 cell viral cytopathic effect protection assay, phenotypic susceptibility of patient recombinant virus. The class given is cell-based. As for the experimental part: Phenotypic susceptibility was determined using a MT-4 cell viral cytopathic effect protection assay. See, e.g., Kashiwase et al., Chemotherapy 45(1):48–55 (1999), expressly incorporated herein by reference; Larder et al., Antimicrob. Agents Chemother. 43(8):1961–1967 (1999).

Where [1] appears, read: Table 13/14 sample 7: 71V,73S,90M, 20I,63P.

As to `CC(C)c1nc(CN(C)C(=O)N[C@H](C(=O)N[C@@H](Cc2ccccc2)C[C@H](O)[C@H](Cc2ccccc2)NC(=O)OCc2cncs2)C(C)C)cs1` [Ritonavir], the actual phenotype result (Table 13/14 sample 2: 10I,46I,48V,77I,82A,90M, 10E,58E,63T) is “S (A fold resistance of less than or equal to 4 is considered to be ‘sensitive’)”; the actual phenotype result (Table 13/14 sample 6: 10I,48V,54V,82A, 13V) is listed as “R (if the value is greater than 10, it is considered to be ‘resistant’)”; the actual phenotype entry under setting [1] is “I (greater than 4 and less than 10 is considered to be ‘intermediate’)”; the actual phenotype result (Table 13/14 sample 14: 10I,46I,71T,77I,90M, 57K,63P,93L) is “S (A fold resistance of less than or equal to 4 is considered to be ‘sensitive’)”; the actual phenotype result (Table 13/14 sample 17: 46I,77I,90M, 10F,20L,63P) is “I (greater than 4 and less than 10 is considered to be ‘intermediate’)”.
Turning to `Nc1nc(NC2CC2)c2ncn([C@H]3C=C[C@@H](CO)C3)c2n1` [1592 U89], the “actual phenotype resistance level” value was “S/S (A fold resistance of less than or equal to 4 is considered to be “sensitive,”)” (Table 3 testing sample 1); “S (A fold resistance of less than or equal to 4 is considered to be “sensitive,”)” (Table 3 testing sample 2); “S/S (A fold resistance of less than or equal to 4 is considered to be “sensitive,”)” (Table 3 testing sample 3); “S/S (A fold resistance of less than or equal to 4 is considered to be “sensitive,”)” (Table 3 testing sample 4); “S/S (A fold resistance of less than or equal to 4 is considered to be “sensitive,”)” (Table 3 testing sample 5); “I (greater than 4 and less than 10 is considered to be “intermediate,”)” (Table 3 testing sample 6). Further, the “actual phenotype resistance level” value runs as follows: (Table 3 testing sample 7) “S/S (A fold resistance of less than or equal to 4 is considered to be “sensitive,”)”; (Table 3 testing sample 8) “I (greater than 4 and less than 10 is considered to be “intermediate,”)”; (Table 3 testing sample 9) “S/S (A fold resistance of less than or equal to 4 is considered to be “sensitive,”)”; (Table 3 testing sample 10) “S/S (A fold resistance of less than or equal to 4 is considered to be “sensitive,”)”.
In the case of `Cc1c(O)cccc1C(=O)N[C@@H](CSc1ccccc1)[C@H](O)CN1C[C@H]2CCCC[C@H]2C[C@H]1C(=O)NC(C)(C)C` [Nelfinavir], the “actual phenotype resistance level” value is listed as “R/R (if the value is greater than 10, it is considered to be ‘resistant’)” (PI test sample 2); “R/R (if the value is greater than 10, it is considered to be ‘resistant’)” (PI test sample 3); “R/R (if the value is greater than 10, it is considered to be ‘resistant’)” (PI test sample 4); “R/R (if the value is greater than 10, it is considered to be ‘resistant’)” (PI test sample 5); “R/R (if the value is greater than 10, it is considered to be ‘resistant’)” (PI test sample 7); “R/R (if the value is greater than 10, it is considered to be ‘resistant’)” (PI test sample 8). Further, the “actual phenotype resistance level” value was “R/R (if the value is greater than 10, it is considered to be ‘resistant’)” (PI test sample 9); “R (if the value is greater than 10, it is considered to be ‘resistant’)” (PI test sample 10); “I/I (greater than 4 and less than 10 is considered to be ‘intermediate’)” (PI test sample 11); “R/R (if the value is greater than 10, it is considered to be ‘resistant’)” (PI test sample 13); “R/R (if the value is greater than 10, it is considered to be ‘resistant’)” (PI test sample 14); “R/R (if the value is greater than 10, it is considered to be ‘resistant’)” (PI test sample 15). In addition, the “actual phenotype resistance level” value reads like this: (PI test sample 16) “R/R (if the value is greater than 10, it is considered to be ‘resistant’)”; (PI test sample 17) “R/R (if the value is greater than 10, it is considered to be ‘resistant’)”; (PI test sample 18) “R/R (if the value is greater than 10, it is considered to be ‘resistant’)”; (PI test sample 19) “R (if the value is greater than 10, it is considered to be ‘resistant’)”; (PI test sample 19, listed as NFV) “R/R (if the value is greater than 10, it is considered to be ‘resistant’)”; (PI test sample 20) “R/R (if the value is greater than 10, it is considered to be ‘resistant’)”. In addition, the “actual phenotype resistance level” value was “R/R (if the value is greater than 10, it is considered to be ‘resistant’)” (PI test sample 21); “R (if the value is greater than 10, it is considered to be ‘resistant’)” (PI test sample 22); “R/R (if the value is greater than 10, it is considered to be ‘resistant’)” (PI test sample 23); “R/R (if the value is greater than 10, it is considered to be ‘resistant’)” (PI test sample 24); “R/R (if the value is greater than 10, it is considered to be ‘resistant’)” (PI test sample 25); “R/R (if the value is greater than 10, it is considered to be ‘resistant’)” (PI test sample 26). Also, the “actual phenotype resistance level” value is reported as “R/R (if the value is greater than 10, it is considered to be ‘resistant’)” (PI test sample 32); “R/R (if the value is greater than 10, it is considered to be ‘resistant’)” (PI test sample 33); “R/R (if the value is greater than 10, it is considered to be ‘resistant’)” (PI test sample 34); “R/R (if the value is greater than 10, it is considered to be ‘resistant’)” (PI test sample 35); “R/R (if the value is greater than 10, it is considered to be ‘resistant’)” (PI test sample 36); “R/R (if the value is greater than 10, it is considered to be ‘resistant’)” (PI test sample 37). Moreover, the “actual phenotype resistance level” value runs as follows: (PI test sample 38) “R/R (if the value is greater than 10, it is considered to be ‘resistant’)”; (PI test sample 39) “R/R (if the value is greater than 10, it is considered to be ‘resistant’)”; (PI test sample 40) “R/R (if the value is greater than 10, it is considered to be ‘resistant’)”; (PI test sample 41) “R/R (if the value is greater than 10, it is considered to be ‘resistant’)”; (PI test sample 42) “I/I (greater than 4 and less than 10 is considered to be ‘intermediate’)”; (PI test sample 44) “R/R (if the value is greater than 10, it is considered to be ‘resistant’)”. For the same molecule, the “actual phenotype resistance level” value by setting is: (PI test sample 45) “R/R (if the value is greater than 10, it is considered to be ‘resistant’)”; (Table 3 testing sample 1) “S/S (A fold resistance of less than or equal to 4 is considered to be “sensitive,”)”; (Table 3 testing sample 4) “R/R (if the value is greater than 10, it is considered to be “resistant.”)”; (Table 3 testing sample 5) “R/R (if the value is greater than 10, it is considered to be “resistant.”)”; (Table 3 testing sample 6) “R/R (if the value is greater than 10, it is considered to be “resistant.”)”; (Table 3 testing sample 7) “S/S (A fold resistance of less than or equal to 4 is considered to be “sensitive,”)”. Also, the “actual phenotype resistance level” value is listed as “R/R (if the value is greater than 10, it is considered to be “resistant.”)” (Table 3 testing sample 8) and “R/R (if the value is greater than 10, it is considered to be “resistant.”)” (Table 3 testing sample 10). Moreover, the actual phenotype entry by setting is: (Table 13/14 sample 1: 10I,71V,73S,84V,90M, 63P,85V,93L) “R (if the value is greater than 10, it is considered to be ‘resistant’)”; (Table 13/14 sample 3: 10I, 36V,93L) “R (if the value is greater than 10, it is considered to be ‘resistant’)”; (Table 13/14 sample 5: 10V,30N, 13V,63P) “R (if the value is greater than 10, it is considered to be ‘resistant’)”; under setting [1], “R (if the value is greater than 10, it is considered to be ‘resistant’)”; (Table 13/14 sample 10: 46I,71V,73S,90M, 20I,63P,93L) “R (if the value is greater than 10, it is considered to be ‘resistant’)”; (Table 13/14 sample 18: 36I,71T,90M, 63P,93L) “R (if the value is greater than 10, it is considered to be ‘resistant’)”. For the setting “Table 13/14 sample 20: 77I,88S, 13V, 63P, 93L”, the actual phenotype entry is “R (if the value is greater than 10, it is considered to be ‘resistant’)”.

Source of the values: US7058616B1, “Method and system for predicting resistance of a disease to a therapeutic agent using a neural network” (Virco Bvba, priority 2000, dated 2006).
